{"source": "patent US4544747A", "about": "“Quinoline carboxylic acid derivatives” (Otsuka Pharmaceutical Company, Limited, priority 1979, dated 1985)", "key": {"[1]": {"tested_on": "rats", "experiment": "Acute toxicity test, oral, rats", "details": "rats (Wister strain, male)"}, "[2]": {"tested_on": "Pyrisularia oryzae", "experiment": "microbe, parasite or virus in culture", "format": "cell-based", "details": "Pyricularia oryzae, 48 h, read-out: Minimum inhibitory concentration"}, "[3]": {"tested_on": "Erwinia carotovora", "experiment": "Antimicrobial-activity test 2, agar dilution plate method, bacteria (A: soft rot of vegetable)", "format": "cell-based", "details": "Pectobacterium carotovorum, 10^8 cells/ml, PDA medium, read-out: Minimum inhibitory concentration", "source_text": "A: Soft rot of vegetable (Erwinia carotovora)"}, "[4]": {"tested_on": "Helminthosporium oryzae", "experiment": "Antimicrobial-activity test 2, mycelial disc on agar plate, fungi (H: Helminthosporium leaf spot)", "details": "Bipolaris oryzae, 48 h, read-out: Minimum inhibitory concentration"}, "[5]": {"tested_on": "Pseudomonas lachrymans", "experiment": "Antimicrobial-activity test 2, agar dilution plate method, bacteria (F: angular leaf spot of cucumber)", "format": "cell-based", "details": "10^8 cells/ml, PDA medium, read-out: Minimum inhibitory concentration", "source_text": "F: Angular leaf spot of cucumber (Pseudomonas lachrymans)"}, "[6]": {"tested_on": "Colletotrichum lagenarium", "experiment": "Antimicrobial-activity test 2, mycelial disc on agar plate, fungi (K: anthracnose of cucumber)", "format": "cell-based", "details": "Colletotrichum orbiculare, 48 h, complete inhibition of mycelial growth, 2 days, PDA medium, read-out: Minimum inhibitory concentration", "source_text": "K: Anthracnose of cucumber (Colletotrichum lagenarium)"}, "[7]": {"tested_on": "Xanthomonas oryzae", "experiment": "microbe, parasite or virus in culture", "format": "cell-based", "details": "read-out: Minimum inhibitory concentration"}, "[8]": {"tested_on": "Mycosphaerella melonis", "experiment": "Antimicrobial-activity test 2, mycelial disc on agar plate, fungi (M: gummy stem blight of melon)", "format": "cell-based", "details": "48 h, complete inhibition of mycelial growth, 2 days, PDA medium, read-out: Minimum inhibitory concentration", "source_text": "[…] blight of melon (Mycosphaerella melonis)"}, "[9]": {"tested_on": "Xanthomonas citri", "experiment": "Antimicrobial-activity test 2, agar dilution plate method, bacteria (D: citrus canker)", "details": "read-out: Minimum inhibitory concentration"}, "[10]": {"tested_on": "Alternaria solani", "experiment": "Antimicrobial-activity test 2, mycelial disc on agar plate, fungi (N: early blight of tomato)", "format": "cell-based", "details": "48 h, complete inhibition of mycelial growth, 2 days, PDA medium, read-out: Minimum inhibitory concentration", "source_text": "N: Early blight of tomato (Alternaria solani)"}, "[11]": {"tested_on": "Erwinia carotovora (soft-rot causing bacterium)", "experiment": "Antimicrobial-activity test 3, incidence of soft rot on inoculated Japanese radish disks", "details": "28° C."}, "[12]": {"tested_on": "Sclerotinia sclerotiorum", "experiment": "Antimicrobial-activity test 2, mycelial disc on agar plate, fungi (L: stem rot of eggplant)", "format": "cell-based", "details": "48 h, complete inhibition of mycelial growth, 2 days, PDA medium, read-out: Minimum inhibitory concentration", "source_text": "L: Stem rot of eggplant (Sclerotinia sclerotiorum)"}, "[13]": {"tested_on": "Phytophthora capsici", "experiment": "Antimicrobial-activity test 2, mycelial disc on agar plate, fungi (J: leaf blight of cucumber)", "format": "cell-based", "details": "48 h, complete inhibition of mycelial growth, 2 days, PDA medium, read-out: Minimum inhibitory concentration", "source_text": "J: Leaf blight of cucumber (Phytophthora capsici)"}, "[14]": {"tested_on": "Pseudomonas solanacearum", "experiment": "microbe, parasite or virus in culture", "format": "cell-based", "details": "Ralstonia solanacearum, read-out: Minimum inhibitory concentration"}, "[15]": {"tested_on": "Xanthomonas pruni", "experiment": "Antimicrobial-activity test 2, agar dilution plate method, bacteria (C: peach bacterial spot)", "format": "cell-based", "details": "Xanthomonas arboricola, 10^8 cells/ml, PDA medium, read-out: Minimum inhibitory concentration", "source_text": "C: Peach bacterial spot (Xanthomonas pruni)"}, "[16]": {"tested_on": "Phytophthora melonis", "experiment": "microbe, parasite or virus in culture", "format": "cell-based", "details": "48 h, read-out: Minimum inhibitory concentration"}, "[17]": {"details": "15.6 μg/ml, test specimen 1, 24 hours"}, "[18]": {"details": "15.6 μg/ml, test specimen 2, 24 hours"}, "[19]": {"details": "15.6 μg/ml, test specimen 3, 24 hours"}, "[20]": {"details": "15.6 μg/ml, test specimen 4, 24 hours"}, "[21]": {"details": "15.6 μg/ml, test specimen 5, 24 hours"}, "[22]": {"details": "31.3 μg/ml, test specimen 1, 24 hours"}, "[23]": {"details": "31.3 μg/ml, test specimen 2, 24 hours"}, "[24]": {"details": "31.3 μg/ml, test specimen 3, 24 hours"}, "[25]": {"details": "31.3 μg/ml, test specimen 4, 24 hours"}, "[26]": {"details": "31.3 μg/ml, test specimen 5, 24 hours"}, "[27]": {"details": "62.5 μg/ml, test specimen 1, 24 hours"}, "[28]": {"details": "62.5 μg/ml, test specimen 2, 24 hours"}, "[29]": {"details": "62.5 μg/ml, test specimen 3, 24 hours"}, "[30]": {"details": "62.5 μg/ml, test specimen 4, 24 hours"}, "[31]": {"details": "62.5 μg/ml, test specimen 5, 24 hours"}, "[32]": {"details": "125 μg/ml, test specimen 1, 24 hours"}, "[33]": {"details": "125 μg/ml, test specimen 2, 24 hours"}, "[34]": {"details": "125 μg/ml, test specimen 3, 24 hours"}, "[35]": {"details": "125 μg/ml, test specimen 4, 24 hours"}, "[36]": {"details": "125 μg/ml, test specimen 5, 24 hours"}}}
{"smiles": "CCn1cc(C(=O)O)c(=O)c2ccc(N3CCNCC3)c(C)c21", "note": "[Compound 1, 1-Ethyl-7-(1-piperazinyl)-8-methyl-4-oxo-1,4-dihydroquinoline-3-carboxylic acid]", "values": [{"measurement": "estimated LD50", "setting": "[1]", "value": "not less than 500 mg/kg"}]}
{"smiles": "CCn1cc(C(=O)O)c(=O)c2ccc(Cl)c(C)c21", "note": "[Compound 2, 1-ethyl-7-chloro-8-methyl-4-oxo-1,4-dihydroquinoline-3-carboxylic acid]", "values": [{"measurement": "MIC", "setting": "[2]", "value": 50, "unit": "µg/mL"}, {"measurement": "MIC", "setting": "[3]", "value": 0.2, "unit": "µg/mL"}, {"measurement": "MIC", "setting": "[4]", "value": 50, "unit": "µg/mL"}, {"measurement": "MIC", "setting": "[5]", "value": 100, "unit": "µg/mL"}, {"measurement": "MIC", "setting": "[6]", "value": 100, "unit": "µg/mL"}, {"measurement": "MIC", "setting": "[7]", "value": 0.2, "unit": "µg/mL"}, {"measurement": "MIC", "setting": "[8]", "value": 50, "unit": "µg/mL"}, {"measurement": "MIC", "setting": "[9]", "value": 0.1, "unit": "µg/mL"}, {"measurement": "MIC", "setting": "[10]", "value": 50, "unit": "µg/mL"}, {"measurement": "Disease incidence index", "setting": "[11]; [17]", "value": "0 (0)"}, {"measurement": "Disease incidence index", "setting": "[11]; [18]", "value": "1 (0< ≤1/3)"}, {"measurement": "Disease incidence index", "setting": "[11]; [19]", "value": "1 (0< ≤1/3)"}, {"measurement": "Disease incidence index", "setting": "[11]; [20]", "value": "1 (0< ≤1/3)"}, {"measurement": "Disease incidence index", "setting": "[11]; [21]", "value": "1 (0< ≤1/3)"}, {"measurement": "Disease incidence index", "setting": "[11]; [22]", "value": "0 (0)"}, {"measurement": "Disease incidence index", "setting": "[11]; [23]", "value": "0 (0)"}, {"measurement": "Disease incidence index", "setting": "[11]; [24]", "value": "0 (0)"}, {"measurement": "Disease incidence index", "setting": "[11]; [25]", "value": "1 (0< ≤1/3)"}, {"measurement": "Disease incidence index", "setting": "[11]; [26]", "value": "1 (0< ≤1/3)"}, {"measurement": "Disease incidence index", "setting": "[11]; [27]", "value": "0 (0)"}, {"measurement": "Disease incidence index", "setting": "[11]; [28]", "value": "0 (0)"}, {"measurement": "Disease incidence index", "setting": "[11]; [29]", "value": "0 (0)"}, {"measurement": "Disease incidence index", "setting": "[11]; [30]", "value": "0 (0)"}, {"measurement": "Disease incidence index", "setting": "[11]; [31]", "value": "1 (0< ≤1/3)"}, {"measurement": "Disease incidence index", "setting": "[11]; [32]", "value": "0 (0)"}, {"measurement": "Disease incidence index", "setting": "[11]; [33]", "value": "0 (0)"}, {"measurement": "Disease incidence index", "setting": "[11]; [34]", "value": "0 (0)"}, {"measurement": "Disease incidence index", "setting": "[11]; [35]", "value": "0 (0)"}, {"measurement": "Disease incidence index", "setting": "[11]; [36]", "value": "1 (0< ≤1/3)"}, {"measurement": "MIC", "setting": "[12]", "value": 100, "unit": "µg/mL"}, {"measurement": "MIC", "setting": "[13]", "value": 25, "unit": "µg/mL"}, {"measurement": "estimated LD50", "setting": "[1]", "value": "not less than 500 mg/kg"}, {"measurement": "MIC", "setting": "[14]", "value": 0.1, "unit": "µg/mL"}, {"measurement": "MIC", "setting": "[15]", "value": 0.4, "unit": "µg/mL"}, {"measurement": "MIC", "setting": "[16]", "value": 12.5, "unit": "µg/mL"}]}
{"smiles": "[H]/N=C(/N)N[C@H]1[C@H](O)[C@@H](O)[C@H](O[C@@H]2O[C@@H](C)[C@](O)(C=O)[C@H]2O[C@@H]2O[C@@H](CO)[C@H](O)[C@@H](O)[C@@H]2NC)[C@@H](N/C(N)=N\\[H])[C@@H]1O", "note": "[Streptomycin, reference compound]", "values": [{"measurement": "Disease incidence index", "setting": "[11]; [17]", "value": 3}, {"measurement": "Disease incidence index", "setting": "[11]; [18]", "value": 3}, {"measurement": "Disease incidence index", "setting": "[11]; [19]", "value": 3}, {"measurement": "Disease incidence index", "setting": "[11]; [20]", "value": 3}, {"measurement": "Disease incidence index", "setting": "[11]; [21]", "value": 3}, {"measurement": "Disease incidence index", "setting": "[11]; [22]", "value": 2}, {"measurement": "Disease incidence index", "setting": "[11]; [23]", "value": 2}, {"measurement": "Disease incidence index", "setting": "[11]; [24]", "value": 3}, {"measurement": "Disease incidence index", "setting": "[11]; [25]", "value": 3}, {"measurement": "Disease incidence index", "setting": "[11]; [26]", "value": 3}, {"measurement": "Disease incidence index", "setting": "[11]; [27]", "value": "1 (0< ≤1/3)"}, {"measurement": "Disease incidence index", "setting": "[11]; [28]", "value": "1 (0< ≤1/3)"}, {"measurement": "Disease incidence index", "setting": "[11]; [29]", "value": 2}, {"measurement": "Disease incidence index", "setting": "[11]; [30]", "value": 2}, {"measurement": "Disease incidence index", "setting": "[11]; [31]", "value": 2}, {"measurement": "Disease incidence index", "setting": "[11]; [32]", "value": "1 (0< ≤1/3)"}, {"measurement": "Disease incidence index", "setting": "[11]; [33]", "value": "1 (0< ≤1/3)"}, {"measurement": "Disease incidence index", "setting": "[11]; [34]", "value": "1 (0< ≤1/3)"}, {"measurement": "Disease incidence index", "setting": "[11]; [35]", "value": "1 (0< ≤1/3)"}, {"measurement": "Disease incidence index", "setting": "[11]; [36]", "value": "1 (0< ≤1/3)"}]}
